From ChEMBL document CHEMBL4831506, “Discovery of novel trimethoxyphenylbenzo[d]oxazoles as dual tubulin/PDE4 inhibitors capable of inducing apoptosis at G2/M phase arrest in glioma and lung cancer cells” (Eur J Med Chem, 2021)

What was measured:
[1] = test system: NCI-H460; assay: Antiproliferative activity against human NCI-H460 cells after 48 hrs by MTT assay; assay type: functional, cell-based; details: NCI-H460, 48 h
[2] = test system: MCF7; assay: Antiproliferative activity against human MCF7 cells after 48 hrs by MTT assay; assay type: functional, cell-based; details: MCF7, 48 h
[3] = species: Sus scrofa; assay: Inhibition of pig brain tubulin polymerization at 10 uM by spectrometric method relative to control; assay type: tissue-based
[4] = test system: A549; assay: Cell cycle arrest in human A549 cells assessed as G2/M phase at 50 nM measured after 24 hrs by propidium iodide staining based flow cytometry analysis (reference value: 6.08%); assay type: functional
[5] = test system: A549; assay: Cell cycle arrest in human A549 cells assessed as G2/M phase at 200 nM measured after 24 hrs by propidium iodide staining based flow cytometry analysis (reference value: 6.08%); assay type: functional
[6] = test system: U-251; assay: Cell cycle arrest in human U-251 cells assessed as G2/M phase at 200 nM measured after 24 hrs by propidium iodide staining based flow cytometry analysis (reference value: 14.43%); assay type: functional
[7] = test system: U-251; assay: Cell cycle arrest in human U-251 cells assessed as S phase at 200 nM measured after 24 hrs by propidium iodide staining based flow cytometry analysis (reference value: 18.23%); assay type: functional
[8] = test system: U-251; assay: Cell cycle arrest in human U-251 cells assessed as G2/M phase at 500 nM measured after 24 hrs by propidium iodide staining based flow cytometry analysis (reference value: 14.43%); assay type: functional
[9] = test system: U-251; assay: Cell cycle arrest in human U-251 cells assessed as S phase at 500 nM measured after 24 hrs by propidium iodide staining based flow cytometry analysis (reference value: 18.23%); assay type: functional
[10] = test system: U-251; assay: Cell cycle arrest in human U-251 cells assessed as G0/G1 phase at 1000 nM measured after 24 hrs by propidium iodide staining based flow cytometry analysis (reference value: 67.34%); assay type: functional
[11] = test system: A549; assay: Induction of apoptosis in human A549 cells assessed as increase in necrotic cells at 500 nM measured after 24 hrs by PI/FITC analysis (reference value: 0.365%); assay type: functional
[12] = test system: A549; assay: Induction of apoptosis in human A549 cells assessed as increase in viable cells at 50 nM measured after 24 hrs by PI/FITC analysis (reference value: 98.4%); assay type: functional
[13] = test system: A549; assay: Induction of apoptosis in human A549 cells assessed as increase in late apoptotic cells at 50 nM measured after 24 hrs by PI/FITC analysis (reference value: 0.955%); assay type: functional
[14] = test system: U-251; assay: Induction of apoptosis in human U-251 cells assessed as increase in late apoptotic cells at 200 nM measured after 24 hrs by PI/FITC analysis (reference value: 0.311%); assay type: functional
[15] = test system: U-251; assay: Induction of apoptosis in human U-251 cells assessed as increase in early apoptotic cells at 500 nM measured after 24 hrs by PI/FITC analysis (reference value: 1.12%); assay type: functional
[16] = test system: U-251; assay: Induction of apoptosis in human U-251 cells assessed as increase in late apoptotic cells at 500 nM measured after 24 hrs by PI/FITC analysis (reference value: 0.311%); assay type: functional
[17] = test system: U-251; assay: Induction of apoptosis in human U-251 cells assessed as increase in necrotic cells at 1000 nM measured after 24 hrs by PI/FITC analysis (reference value: 0.301%); assay type: functional
[18] = test system: A549; assay: Cell cycle arrest in human A549 cells assessed as increase in cyclin B1 expression by Western blot analysis; assay type: functional, cell-based; details: dose 50-500 nM

## COc1cc(-c2cccc3nc(-c4ccc5cc[nH]c5c4)oc23)cc(OC)c1OC
[1]
  IC50: 24 nM
[2]
  IC50: > 25000 nM
[3]
  inhibition: 86%
[4]
  Activity: 19.43%
[5]
  Activity: 61.33%
[6]
  Activity: 37.97%
[7]
  Activity: 18.32%
[8]
  Activity: 42.9%
[9]
  Activity: 22.47%
[10]
  Activity: 13.54%
[11]
  Activity: 2.84%
[12]
  Activity: 86.9%
[13]
  Activity: 7.23%
[14]
  Activity: 6.95%
[15]
  Activity: 4.61%
[16]
  Activity: 9.13%
[17]
  Activity: 1.66%
[18]
  Activity: Dose-Dependent Effect
